Data on two compounds can be found in patent US20140357720A1, “NOVEL PHYTOSPHINGOSINE DERIVATIVES, AND A COSMETIC COMPOSITION COMPRISING THE SAME FOR PREVENTING AND AMELIORATING INFLAMMATORY SKIN DISEASES AND HYPERKERATOSIS DISEASES” (THE CATHOLIC UNIVERSITY OF KOREA INDUSTRY-ACADEMIC …, priority 2011, published 2014).

Data set [1] relates to NF-κB. The data set is described as follows: Phosphorylation and degradation of IκBα and phosphorylation of NF-κB in TPA-stimulated skin keratinocytes (western blot). The class given is cell-based, human. As to the method:
(§1) Herein, in order to verify the effect of novel synthetic YG-II-6 compounds and their lead compound, phytosphingosine, on phosphorylation and degradation of IκBα, which is a protein that inhibits the activity of NF-κB by forming a complex with NF-κB, skin keratinocytes were pre-treated with respective compounds for 1 hour and then stimulated with 400 nM TPA for 15 minutes and 30 minutes, respectively. In order to verify the phosphorylation of NF-κB and the expression level of NF-κB in the cytoplasm and nucleus, skin keratinocytes were stimulated for 15 minutes and 1 hour, respectively. The results were confirmed by western blot analysis. In addition, the nuclear translocation of NF-κB was confirmed through reaction with antibodies, fluorescent labeling, and direct observation by microscopy. In order to verify the activity of the respective compounds at the transcription stage, cells were transfected with plasmids labeled with NF-κB luciferase reporter, and the luciferase activity was measured by the luciferase assay. In addition, the phosphorylation of IκBα and NF-κB was measured in the PTA-stimulated mouse skin.
For orientation: Immunoblotting shows a protein as a band on a membrane.

For data set [2], the system named is NF-κB. Briefly: Nuclear translocation of NF-κB in TPA-stimulated skin keratinocytes (immunostaining, microscopy). The class given is cell-based, human. As to conditions: TPA stimulation, FIG. 1B. The method, then:
as §1

Data set [3] has as its system NF-κB. The data set is described as follows: NF-κB luciferase reporter assay, TPA stimulation. It is filed as cell-based. As to conditions: FIG. 1C. The method, then: as §1
The subject of another data set is ERK1/2, p38, JNK. The data set is described as follows: MAP kinase phosphorylation in TPA-stimulated skin keratinocytes (western blot). It is filed as cell-based, human. As to conditions: FIG. 4. As to the method:
In order to verify the effects of the respective compounds on MAP kinase, skin keratinocytes were treated with the respective compounds for 1 hour, and then stimulated with 400 nM TPA for 15 minutes. The level of phosphorylation was confirmed by western blot assay.

Data set [4] deals with human-derived keratinocytes. Briefly: Cytotoxicity on human-derived keratinocytes (WST-1 reagent). It is filed as cell-based. The note with it: WST-1, FIG. 7A. The method, then: (§2) Therefore, in order to verify the degree of the cytotoxicity of the YG-II-6 compounds, their cytotoxicity on human-derived keratinocytes was confirmed by using the WST-1 reagent. In order to verify the effects of the compounds on the expression of proteins associated with apoptosis, the keratinocytes were treated with corresponding concentrations of the respective compound samples and stimulated with TPA for 24 hours, and the expression levels of proteins were confirmed by western blot assay. In addition, human-derived keratinocytes and primary culture skin keratinocytes were treated with the compounds, and after 24 hours, subjected to FITC staining and TUNEL assay, and the skin tissues isolated from TPA-induced mice was subjected to FITC staining.
For orientation: Tetrazolium dyes change colour on reduction, which living cells bring about.

The test system of data set [5] is human-derived keratinocytes and primary culture skin keratinocytes. Briefly: Apoptosis in keratinocytes (FITC staining and TUNEL assay). It is filed as cell-based. The note with it: 24 hours, FIGS. 7C to 7E. The method, then:
as §2

Another data set concerns mouse skin tissues. Briefly: Apoptosis in skin tissues isolated from TPA-induced mice (FITC staining). The class given is in vivo. As to conditions: FIGS. 7C to 7E. The method, then:
as §2

Setting [6] is: overall conclusion of section 2-1.

In the case of `CCCCCCCCCCCCCC[C@@H](O)[C@@H](O)[C@@H](N)CO` [phytosphingosine], the “activation of NF-κB (phosphorylation and degradation of IκBα)” value in the data set with NF-κB [1] (setting [6]) was “inhibited”. For the same compound, in the data set on NF-κB [1] (skin keratinocytes, 1 hour pre-treatment, 400 nM TPA, FIG. 1A), the “phosphorylation of IκBα and NF-κB increased by TPA stimulation” value was “inhibited”. Moreover, in the data set on NF-κB [2], the “nuclear translocation of NF-κB” value is “inhibited”. Further, the “NF-κB luciferase activity increased by TPA stimulation” value in the data set on NF-κB [3] is on record as “inhibited”. Also, the “inhibitory activity on phosphorylation of ERK1/2, p38, and JNK relative to the YG-II-6 compounds” value in the data set on ERK1/2, p38, JNK is listed as “relatively weaker inhibitory activity”. Besides, the “phosphorylation of ERK1/2, p38, and JNK” value with ERK1/2, p38, JNK (skin keratinocytes, 1 hour treatment, 400 nM TPA 15 minutes) was “no or little inhibitory effect”. Moreover, the “concentration at which cytotoxicity was shown” value in data set [4] lay within 5 to 10 µM. For the same compound, the “apoptosis in the TPA-stimulated cells” value in data set [5] is “induced apoptosis”. In addition, the “apoptosis in the mouse skin tissues” value with mouse skin tissues is “induced apoptosis”.

Consider `CCCCCCCCCCCCCC[C@@H](O)[C@@H](O)[C@H](CO)NC(=O)/C=C/C(=O)O` [fYG-II-6, (E)-4-oxo-4-(((2S,3S,4R)-1,3,4-trihydroxyoctadecan-2-yl)amino)but-2-enoic acid], for which, in the data set on NF-κB [1] (setting [6]), the “inhibitory effect on the NF-κB activation, fYG-II-6 compared with mYG-II-6” value was “relatively greater inhibitory effect than mYG-II-6”.
